Source: patent publication US20150025019A1, “Method for Dosage Adjustment of Drugs that Prevent Elastic Fiber Breakdown” (priority 2013, published 2015)
“Also recorded” adds a separate entry of the source.

Tests used:
[1] = therapy in cystic fibrosis; cited from earlier work
[2] = test system: lung inflammation in a cystic fibrosis model; conditions: cystic fibrosis model in mice; cited from earlier work
elastin degradation = experiment: Desmosine and isodesmosine concentrations in sputum, plasma and urine of COPD patients in the clinical trial; format: in vivo, human; conditions: 2 weeks of hyaluronan aerosol; for Levels of desmosine and isodesmosine in sputum: all 6 patients who provided sputum samples
Description: (§1) With this background, efforts continue to develop hyaluronan aerosol as a potential therapy for chronic obstructive pulmonary disease (COPD) related to alpha-1 antitrypsin deficiency (AATD) and not related to AATD. As part of that development this clinical safety trial was conducted in 11 COPD patients, 8 of whom received hyaluronan and 3 received placebo. The study protocol was conducted under IND number 70299. The primary aim of the study was to establish safety and to evaluate biomarker activity with respect to body and lung elastin degradation.
(§2) Each patient self-administered 0.01% hyaluronan from a vialed volume of 3 ml by aerosol from a compressor-delivered Pari nebulizer, morning and night for 14 days. The primary endpoints to assess safety were adverse events, oxygen saturation, spirometry, lung volumes, physical examination, vital signs, electrocardiogram and laboratory evaluations (CBC, serum chemistries and urinalysis). Additionally, desmosine and isodesmosine concentrations in sputum, plasma and urine were measured to assess a possible effect on elastin degradation (44, 45)
Sputum samples collected from patients with emphysema and other inflammatory lung diseases are chemically degraded to separate the component amino acids of elastic fibers and other proteins. This procedure may involve hydrolyzing the sample with an acid such as HCl or a base such as NaOH, according to procedures well known to the art. The resulting hydrolysate is then measured for total elastin-specific amino acids, desmosine and isodesmosine, using a variety of procedures, including liquid chromatography or immunoassay, ultraviolet spectroscopy, fluorescence spectroscopy, mass spectrometry, or other spectroscopic techniques well-known to the art.
Desmosine and isodesmosine content of the sputum sample is then normalized to one or more parameters, such as total protein, albumin, or free amino acids, according to procedures well known to the art. The final value is expressed as total desmosine/isodesmosine per unit volume, protein, albumin, amino acids or other relevant parameter. Results obtained from the same patient over time may be used to determine variations in the amount of lung elastic fiber injury.

[3] = test system: pulmonary emphysema induced by tobacco smoke; conditions: mice exposed to tobacco smoke over a 6-month period; cited from earlier work
elastic fiber breakdown = experiment: Illustrative examples of titrating aerosolized hyaluronan by sputum desmosine and isodesmosine level; format: in vivo, human
Description: Examples of the use of the invention to titrate treatment with aerosolized hyaluronan are given below:
1) A patient with pulmonary emphysema is found to have an abnormally high level of sputum desmosine and isodesmosine (20 nanograms/gram protein compared to a normal level of less than 5 nanograms/g protein), and begins treatment with a dose of 0.1% hyaluronan that is inhaled for 20 minutes once daily in the morning. After 1 month, the sputum desmosine and isodesmosine level is measured and found to be 10 nanograms/g of protein in the sputum, which is more than twice the upper limit of normal. The patient is then switched to a twice daily inhalation for 20 minutes in the morning and evening. Two weeks later, the patient's sputum desmosine and isodesmosine level has fallen to 1 nanogram/g of protein, which is within the normal range. Their treatment is therefore left unchanged and sputum desmosine and isodesmsoine levels are measured at monthly intervals to ensure that the drug remains effective in preventing elastic fiber breakdown.
2) A patient with a history of smoking is tested for sputum desmosine and isodesmosine levels. They are found to have a mildly elevated level of 6 nanograms/g protein, and is placed on low dose hyaluronan, involving a single daily 20 minute inhalation of 0.05% hyaluronan. Two weeks later, their sputum desmosine and isodesmosine level is 1 nanogram/g protein, which is within the normal range. Based on this finding, their treatment is lowered to a 20 minute inhalation of hyaluronan every other day. Two weeks later, their sputum desmosine and isodesmsoine level has risen to 6 nanograms/g protein, which is above the upper limit of normal. Their treatment regimen is therefore returned to a 20 minute inhalation every day. Two weeks later, their sputum desmosine and isodesmosine level has fallen to 1 nanogram/g protein. Their treatment needs no further modification, and sputum desmosine and isodesmosine levels are measured at monthly intervals to ensure that the drug remains effective in preventing elastic fiber breakdown.

elastin fibers = conditions: in vitro; cited from earlier work
[4] = Clinical safety trial of hyaluronan aerosol in COPD patients: safety endpoints; format: in vivo, human
Description: as §1
Eleven patients were recruited from 2 Centers: 9 patients from Research Associates in Tucson Ariz. and 2 patients from St. Luke's-Roosevelt Hospital Pulmonary Disease Center in New York. All patients fulfilled the diagnostic criteria of COPD with GOLD grades 2 and 3 with moderate airway obstruction (FEV1 above 40% of predicted) and at least a ten pack-year history of cigarette smoking. No patients were actively smoking at the time of recruitment and smoking cessation had occurred over one year prior to the study in all patients. Six patients were male […]. All were Caucasian. Three patients received placebo. Eight patients received hyaluronan CTX-100.
as §2

[5] = test system: emphysema induced by elastase enzymes; conditions: animals; aerosol; cited from earlier work
[6] = listed as aerosolized hyaluronan

## hyaluronan
[1]
  Tolerability of hypertonic saline: improve tolerability of hypertonic saline
[2]
  Lung inflammation: reduce lung inflammation in a cystic fibrosis model in mice
Elastin degradation
  Blood levels of desmosine and isodesmosine: significant reduction
  Urine levels of desmosine and isodesmosine: significant reduction
  Levels of desmosine and isodesmosine in sputum: statistically significant reduction; also recorded: Reductions
Elastin degradation; [6]
  Levels of desmosine and isodesmosine in sputum: statistically significant decline
  Blood levels of desmosine and isodesmosine: statistically significant decline
  Urine levels of desmosine and isodesmosine: statistically significant decline
[3]
  Pulmonary emphysema induced by tobacco smoke: decrease the pulmonary emphysema induced in mice exposed to tobacco smoke
Elastic fiber breakdown; patient with history of smoking, start 6, single daily 20 minute inhalation of 0.05% hyaluronan, two weeks later
  Sputum desmosine and isodesmosine level: 1 nanogram/g protein
Elastic fiber breakdown; patient with pulmonary emphysema, start 20, 0.1% hyaluronan inhaled 20 minutes once daily, after 1 month
  Sputum desmosine and isodesmosine level: 10 nanograms/g of protein
Elastic fiber breakdown; same patient, 0.1% hyaluronan, twice daily 20 minute inhalation, two weeks later
  Sputum desmosine and isodesmosine level: 1 nanogram/g of protein
Elastic fiber breakdown; same patient, 20 minute inhalation every other day, two weeks later
  Sputum desmosine and isodesmosine level: 6 nanograms/g protein
Elastic fiber breakdown; same patient, returned to 20 minute inhalation every day, two weeks later
  Sputum desmosine and isodesmosine level: 1 nanogram/g protein
Elastin fibers
  Elastase degradation of elastin fibers: block elastase degradation of elastin fibers in vitro
[4]; 0.01% hyaluronan, 3 ml by aerosol, morning and night for 14 days
  Adverse events: mild to moderate
[4]; 2 weeks of administration
  Effect on EKG: no significant effect
  Effect on routine laboratory procedures: no significant effect
  Effect on spirometric indices: no significant effect
[5]
  Severity of emphysema induced by elastase enzymes: decrease the severity of emphysema induced by elastase enzymes
